Here are results for 46 compounds from patent publication US11111217B2, “2-arylbenzimidazoles as Ppargc1a activators for treating neurodegenerative diseases” (The Board of Trustees of the Leland Stanford Junior …, priority 2018, dated 2021).

This assay has as its system TNF-α production by BV2 cells or PBMC. As to the kind of experiment: Cellular assay to measure TNF-α inhibition (LPS-stimulated, ELISA). As to conditions: BV2 cells or PBMC (not specified), LPS 100 ng/ml over 24 hours, relative to DMSO vehicle; compound concentration not stated. It is filed as cell-based, murine (BV2) or human (PBMC). The text has this: Oxidative metabolism exerts an anti-inflammatory effect on myeloid cell phenotype (O'Neill L A, Front Immunol. 2014) and Ppargc1a can promote this energy metabolic pathway (Spiegelman BM, Novartis Found Symp. 2007). Thus, pharmacological activation of Ppargc1a would be expected to inhibit the inflammatory response of myeloid cells. This phenomenon can be measured in cultures by a TNF-α inhibition assay.
Cellular Assay Protocol to Measure TNF-α Inhibition
The murine myeloid cell line BV2 or human peripheral blood mononuclear cells (PBMC) are cultured in RPMI 1640 media (Cat #11875119, Gibco) supplemented with 10% fetal bovine serum and 1% L-glutamine 1% penicillin. These cells are then stimulated with 100 ng/ml of lipopolysaccharide (LPS, O111:B34, Cat # L2630, Sigma) over 24 hours. LPS stimulation results in the secretion of the inflammatory cytokine TNF-α by BV2 cells or PBMC, which can be quantified by ELISA in culture supernatant samples per manufacturer's protocol (Cat #558273 for BV2 and Cat #558299 for PBMC, BD Biosciences). To determine whether exampl compounds 1-78 inhibit TNF-α production by BV2 cells or PBMC, the cells were cultured in the presence of the compounds at different concentrations, and fold reduction in TNF-α production relative to TNF-α production by the same cells cultured in the presence of dimethylsulfoxide (as vehicle control) was determined.
(In general: In an ELISA, binding on a coated surface is turned into a signal by an enzyme label.)

As for `CC(C)(C)c1ccc(-c2nc3c(Br)cccc3[nH]2)cc1` [Example 54, 2-(4-tert-Butylphenyl)-4-bromo-1H-benzo[d]imidazole], the “TNF α Inhibition” value is on record as “A (A = >80% inh.)”.
For the compound `CC(C)(C)c1ccc(-c2nc3c(N)cccc3[nH]2)cc1` [Example 62, 2-(4-tert-Butylphenyl)-1H-benzo[d]imidazol-4-amine], the “TNF α Inhibition” value was “A (A = >80% inh.)”.
For `CC(C)(C)c1ccc(-c2nc3c(C(N)=O)cccc3[nH]2)cc1` [Example 74, 2-(4-tert-Butylphenyl)-1H-benzo[d]imidazol-4-carboxamide] the value was “A (A = >80% inh.)”.
Turning to `CC(C)(C)c1ccc(-c2nc3ncccc3[nH]2)cc1` [Example 35, 2-(4-tert-Butylphenyl)-1H-imidazo[4,5-b]pyridine], the “TNF α Inhibition” value was “C (C = <50% inh.)”.
For the compound `c1ccc(-c2nc3ccccc3[nH]2)cc1` [Example 14, 2-(Phenyl)-1H-benzo[d]imidazole], the “TNF α Inhibition” value was “C (C = <50% inh.)”.
The entry for `FC(F)(F)c1cccc(-c2nc3ccccc3[nH]2)c1` [Example 39, 2-(3-Trifluoromethylphenyl)-1H-benzo[d]imidazole] is “B (B = 50-80% inh.)”; for `Clc1ccc(-c2nc3ccccc3[nH]2)cc1` [Example 8, 2-(4-Chlorophenyl)-1H-benzo[d]imidazole] it is “C (C = <50% inh.)”.
The entry for `COc1cccc2[nH]c(-c3ccc(C(C)(C)C)cc3)nc12` [Example 51, 2-(4-tert-Butylphenyl)-4-methoxy-1H-benzo[d]imidazole] is “A (A = >80% inh.)”; for `CCCOc1ccc(-c2nc3ccccc3[nH]2)cc1` [Example 68, 2-(4-Propoxyphenyl)-1H-benzo[d]imidazole] it is “C (C = <50% inh.)”; for `N#Cc1cccc(-c2nc3ccccc3[nH]2)c1` [Example 30, 2-(3-Cyanophenyl)-1H-benzo[d]imidazole] it is “C (C = <50% inh.)”.
For the compound `CC(C)(C)c1ccc(-c2nc3cc(F)c(F)cc3[nH]2)cc1` [Example 52, 2-(4-tert-Butylphenyl)-5,6-difluoro-1H-benzo[d]imidazole], the “TNF α Inhibition” value was “C (C = <50% inh.)”.
For `FC(F)(F)c1ccc(-c2nc3ccccc3[nH]2)cc1` [Example 15, 2-(4-Trifluoro-methylphenyl)-1H-benzo[d]imidazole] the value was “C (C = <50% inh.)”.
The entry for `Oc1ccc(-c2nc3ccccc3[nH]2)cc1` [Example 24, 2-(4-Hydroxy-phenyl)-1H-benzo[d]imidazole] is “A (A = >80% inh.)”; for `CC(C)c1ccc(-c2nc3ccccc3[nH]2)cc1` [Example 33, 2-(4-Isopropylphenyl)-1H-benzo[d]imidazole] it is “C (C = <50% inh.)”; for `Brc1ccccc1-c1nc2ccccc2[nH]1` [Example 23, 2-(2-Bromophenyl)-1H-benzo[d]imidazole] it is “B (B = 50-80% inh.)”.
The entry for `Cc1ccc(-c2nc3ccccc3[nH]2)cc1` [Example 11, 2-(4-Methylphenyl)-1H-benzo[d]imidazole] is “A (A = >80% inh.)”.
For the compound `Cn1c(-c2ccc(C(C)(C)C)cc2)nc2ccccc21` [Example 6, 2-(4-tert-Butylphenyl)-1-methyl-benzo[d]imidazole], the “TNF α Inhibition” value is listed as “B (B = 50-80% inh.)”.
For `c1ccc(Oc2ccc(-c3nc4ccccc4[nH]3)cc2)cc1` [Example 72, 2-(4-Phenoxyphenyl)-1H-benzo[d]imidazole] the value was “C (C = <50% inh.)”.
`c1ccc(COc2ccc(-c3nc4ccccc4[nH]3)cc2)cc1` [Example 73, 2-(4-Benzyloxyphenyl)-1H-benzo[d]imidazole]: the “TNF α Inhibition” value is “C (C = <50% inh.)”.
The entry for `Nc1cccc(-c2nc3ccccc3[nH]2)c1` [Example 47, 2-(3-Aminophenyl)-1H-benzo[d]imidazole] is “C (C = <50% inh.)”; for `CC(C)(C)c1cc(-c2nc3ccccc3[nH]2)cc(C(C)(C)C)c1` [Example 53, 2-(3,5-di-tert-Butylphenyl)-1H-benzo[d]imidazole] it is “C (C = <50% inh.)”; for `CC(C)(C)c1ccc(-c2nc3ccccc3[nH]2)cn1` [Example 10, 2-(6-tert-Butyl-3-pyridyl)-1H-benzo[d]imidazole] it is “A (A = >80% inh.)”.
For `CC(C)(C)c1ccc(-c2nc3c(O)cccc3[nH]2)cc1` [Example 50, 2-(4-tert-Butylphenyl)-1H-benzo[d]imidazol-4-ol] the value was “A (A = >80% inh.)”; for `CC(C)(C)c1ccc(-c2nc3ccccc3o2)cc1` [Example 4, 2-(4-tert-Butylphenyl)-1,3-benzoxazole], “B (B = 50-80% inh.)”.
Consider `Clc1ccccc1-c1nc2ccccc2[nH]1` [Example 7, 2-(2-Chlorophenyl)-1H-benzo[d]imidazole], for which the “TNF α Inhibition” value is given as “C (C = <50% inh.)”.
The entry for `Fc1cccc(-c2nc3ccccc3[nH]2)c1` [Example 36, 2-(3-Fluorophenyl)-1H-benzo[d]imidazole] is “C (C = <50% inh.)”; for `c1ccc(-c2ccc(-c3nc4ccccc4[nH]3)cc2)cc1` [Example 65, 2-(4-Biphenyl)-1H-benzo[d]imidazole] it is “C (C = <50% inh.)”; for `Brc1ccc(-c2nc3ccccc3[nH]2)cc1` [Example 26, 2-(4-Bromophenyl)-1H-benzo[d]imidazole] it is “C (C = <50% inh.)”.
For the compound `COc1ccc2[nH]c(-c3ccc(C(C)(C)C)cc3)nc2c1` [Example 29, 2-(4-tert-Butylphenyl)-5-methoxy-1H-benzo[d]imidazole], the “TNF α Inhibition” value is “A (A = >80% inh.)”.
The entry for `Cc1ccccc1-c1nc2ccccc2[nH]1` [Example 12, 2-(2-Methylphenyl)-1H-benzo[d]imidazole] is “C (C = <50% inh.)”; for `Cc1cccc2[nH]c(-c3ccc(C(C)(C)C)cc3)nc12` [Example 45, 2-(4-tert-Butylphenyl)-4-methyl-1H-benzo[d]imidazole] it is “A (A = >80% inh.)”.
`COc1ccc(-c2nc3c(F)cc(F)cc3[nH]2)cc1` [Example 78, 4,6-Difluoro-2-(4-methoxyphenyl)-1H-benzo[d]imidazole]: the “TNF α Inhibition” value was “C (C = <50% inh.)”.
`CC(C)(C)c1ccc(-c2nc3cc(C#N)ccc3[nH]2)cc1` [Example 31, 2-(4-tert-Butylphenyl)-1H-benzo[d]imidazole-5-carbonitrile]: the “TNF α Inhibition” value was “A (A = >80% inh.)”.
Turning to `CC(C)(C)c1ccc(-c2nc3c(F)cccc3[nH]2)cc1` [Example 49, 2-(4-tert-Butylphenyl)-4-fluoro-1H-benzo[d]imidazole], the “TNF α Inhibition” value is listed as “A (A = >80% inh.)”.
As for `Oc1ccccc1-c1nc2ccccc2[nH]1` [Example 16, 2-(2-Hydroxy-phenyl)-1H-benzo[d]imidazole], the “TNF α Inhibition” value is reported as “C (C = <50% inh.)”.
As to `CC(C)(C)c1ccc(-c2nc3c(Cl)cccc3[nH]2)cc1` [Example 46, 2-(4-tert-Butylphenyl)-4-chloro-1H-benzo[d]imidazole], the “TNF α Inhibition” value is on record as “A (A = >80% inh.)”.
For `Cc1ccc2[nH]c(-c3ccc(C(C)(C)C)cc3)nc2c1` [Example 38, 2-(4-tert-Butylphenyl)-5-methyl-1H-benzo[d]imidazole] the value was “A (A = >80% inh.)”; for `FC(F)(F)C1(c2ccc(-c3nc4ccccc4[nH]3)cc2)CC1` [Example 59, 2-[4-[1-(Trifluoromethyl)-cyclopropyl]phenyl]-1H-benzo[d]imidazole], “C (C = <50% inh.)”.
The entry for `Fc1ccc(-c2nc3ccccc3[nH]2)cc1` [Example 34, 2-(4-Fluorophenyl)-1H-benzo[d]imidazole] is “C (C = <50% inh.)”.
For `Fc1ccccc1-c1nc2ccccc2[nH]1` [Example 17, 2-(2-Fluorophenyl)-1H-benzo[d]imidazole] the value was “C (C = <50% inh.)”.
Turning to `CC(C)(C)c1ccc(-c2nc3cc(Br)ccc3[nH]2)cc1` [Example 43, 2-(4-tert-Butylphenyl)-5-bromo-1H-benzo[d]imidazole], the “TNF α Inhibition” value is recorded as “A (A = >80% inh.)”.
Consider `CCc1ccc(-c2nc3ccccc3[nH]2)cc1` [Example 28, 2-(4-Ethylphenyl)-1H-benzo[d]imidazole], for which the “TNF α Inhibition” value is “C (C = <50% inh.)”.
For `CC(C)(C)c1ccc(-c2nc3ccccc3s2)cc1` [Example 3, 2-(4-tert-Butylphenyl)-1,3-benzothiazole] the value was “C (C = <50% inh.)”.
For `Brc1cccc(-c2nc3ccccc3[nH]2)c1` [Example 19, 2-(3-Bromophenyl)-1H-benzo[d]imidazole] the value was “C (C = <50% inh.)”; for `CCOc1ccc(-c2nc3ccccc3[nH]2)cc1` [Example 67, 2-(4-Ethoxyphenyl)-1H-benzo[d]imidazole], “C (C = <50% inh.)”; for `CC(C)(C)c1ccc(-c2nc3cnccc3[nH]2)cn1` [Example 13, 2-(6-tert-Butyl-3-pyridyl)-1H-imidazo[4,5-c]-pyridine], “B (B = 50-80% inh.)”.
